Data set [1] has as its system ECV-304. The experiment in a line: Cytotoxicity against human ECV304 cells at 15 ug/ml after 72 hrs by XTT reduction assay. It is filed as cell-based. The settings on record: ecv-304, 72 h.
For data set [2], the system named is ECV-304. In words: Induction of type I ribosome-inactivating protein-mediated cytotoxicity of human ECV304 cells measured at 15 ug/ml after 72 hrs by XTT reduction assay. It is filed as functional, cell-based. A general note: Tetrazolium dyes change colour on reduction, which living cells bring about.

Structures are written as SMILES. Activity calls are given as the source filed them. No cut-off for these calls is given here.

Among the data in ChEMBL document CHEMBL2331128, “Nebulosides A-B, novel triterpene saponins from under-ground parts of Gypsophila arrostii Guss. var. nebulosa” (Bioorg Med Chem, 2013) are Activity values, retold here.

Take `C[C@@H]1O[C@@H](O[C@H]2[C@H](OC(=O)[C@]34CCC(C)(C)C[C@H]3C3=CC[C@@H]5[C@@]6(C)CC[C@H](O[C@@H]7O[C@H](C(=O)O)[C@@H](O)[C@H](O[C@@H]8OC[C@@H](O)[C@H](O)[C@H]8O)[C@H]7O[C@@H]7O[C@H](CO)[C@H](O)[C@H](O)[C@H]7O[C@@H]7O[C@H](CO)[C@H](O)[C@H](O)[C@H]7O)[C@@](C)(C=O)[C@@H]6CC[C@@]5(C)[C@]3(C)CC4)O[C@H](C)[C@@H](O)[C@@H]2O)[C@H](O)[C@H](O[C@@H]2O[C@H](CO)[C@@H](O)[C@H](O)[C@H]2O)[C@H]1O[C@@H]1OC[C@@H](O)[C@H](O[C@@H]2OC[C@@H](O)[C@H](O)[C@H]2O)[C@H]1O`: the Activity entry in the data set with ECV-304 [1] was “Non-toxic”. Also, the result in the data set on ECV-304 [2] was Active.
On to `C[C@@H]1O[C@@H](O[C@H]2[C@H](OC(=O)[C@]34CCC(C)(C)C[C@H]3C3=CC[C@@H]5[C@@]6(C)CC[C@H](O[C@@H]7O[C@H](C(=O)O)[C@@H](O)[C@H](O[C@@H]8OC[C@@H](O)[C@H](O)[C@H]8O)[C@H]7O[C@@H]7O[C@H](CO)[C@H](O)[C@H](O)[C@H]7O)[C@@](C)(C=O)[C@@H]6CC[C@@]5(C)[C@]3(C)C[C@H]4O)O[C@H](C)[C@@H](O)[C@@H]2O)[C@H](O)[C@H](O[C@@H]2O[C@H](CO)[C@@H](O)[C@H](O)[C@H]2O)[C@H]1O[C@@H]1OC[C@@H](O)[C@H](O[C@@H]2OC[C@@H](O)[C@H](O)[C@H]2O)[C@H]1O`, for which the Activity result in the data set on ECV-304 [1] is reported as “Non-toxic”. Moreover, the result in the data set with ECV-304 [2] was Active.
